According to ChEMBL document CHEMBL3860106, “Identification of the Binding Site of Chroman-4-one-Based Sirtuin 2-Selective Inhibitors using Photoaffinity Labeling in Combination with Tandem Mass Spectrometry” (J Med Chem, 2016):
The source made the active and inactive calls. The rule behind the calls is not given here.

Experiments:
[1] = target: T1, NAD-dependent protein deacetylase sirtuin-2 (Homo sapiens) (UniProt Q8IXJ6); assay: Inhibition of SIRT2 (unknown origin) at 200 uM by fluorescence-based assay
T1 sequence (whole entry): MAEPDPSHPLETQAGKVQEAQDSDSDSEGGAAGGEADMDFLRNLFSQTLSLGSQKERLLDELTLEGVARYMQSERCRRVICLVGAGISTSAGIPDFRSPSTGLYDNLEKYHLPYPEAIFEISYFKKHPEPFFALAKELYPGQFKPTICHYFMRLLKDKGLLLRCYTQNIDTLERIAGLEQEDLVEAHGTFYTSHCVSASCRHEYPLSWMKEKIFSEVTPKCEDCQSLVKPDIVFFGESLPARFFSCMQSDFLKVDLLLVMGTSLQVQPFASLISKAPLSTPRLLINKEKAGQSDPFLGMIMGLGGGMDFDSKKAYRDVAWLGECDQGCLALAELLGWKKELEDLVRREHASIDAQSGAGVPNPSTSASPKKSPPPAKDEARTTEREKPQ

[2] = target: T1, NAD-dependent protein deacetylase sirtuin-2 (Homo sapiens); assay: Binding affinity to recombinant SIRT2 (unknown origin) assessed as photoaffinity labeling at H187 residue at 400 uM in presence of NAD+ and peptide substrate by LC-MS/MS method
[3] = Photo activation assessed as [photo-decomposition irradiated with 365 nm 23 mW/cm2 UV light using high-power light-emitting diode by 1H and 19F NMR spectroscopy; assay type: physicochemical
[4] = target: T1, NAD-dependent protein deacetylase sirtuin-2 (Homo sapiens); assay: Binding affinity to recombinant SIRT2 (unknown origin) assessed as detection of tryptic peptide with amino acid sequence 175-IAGLEQEDLVEAHGTFYTSHCVSASCRHEYPLSWMK-210 at 400 uM in presence of NAD+ and peptide substrate by LC-MS/MS method
[5] = target: T2, NAD-dependent protein deacetylase sirtuin-2 (Homo sapiens, UniProt Q8IXJ6); assay: Inhibition of SIRT2 (unknown origin) by fluorescence-based assay
T2 sequence (Q8IXJ6 whole entry): T1 sequence (whole entry)

[6] = Drug metabolism assessed as compound formation using compound 4 irradiated with 365 nm 23 mW/cm2 UV light using high-power light-emitting diode by UV/vis spectroscopy; assay type: ADME

Row | inhibition [1] [%] | Activity [2] | Drug metabolism [3] | Activity [4] | IC50 [5] [µM] | Drug uptake [6] | Compound
1 | 51 |  |  |  |  |  | CCCCCC1CC(=O)c2cc(N=[N+]=[N-])ccc2O1 (configuration not stated)
2 | 78 | Active | Metabolite_Detected | Active | 8.2 |  | CCCCCC1CC(=O)c2cc(C3(C(F)(F)F)N=N3)ccc2O1 (configuration not stated)
3 |  |  |  |  |  | Metabolite_Detected | CCCCCC1CC(=O)c2cc(C(=[N+]=[N-])C(F)(F)F)ccc2O1 (configuration not stated)
